Assay results from PMC3152581 (Journal of natural products, 2010).

Target: BACE1 (memapsin-2) (Homo sapiens, UniProt P56817)
Test: BACE1 assay
Assay type: biochemical
Conditions: biological screening; result in words

Sequence of BACE1 (memapsin-2) (P56817 46-501): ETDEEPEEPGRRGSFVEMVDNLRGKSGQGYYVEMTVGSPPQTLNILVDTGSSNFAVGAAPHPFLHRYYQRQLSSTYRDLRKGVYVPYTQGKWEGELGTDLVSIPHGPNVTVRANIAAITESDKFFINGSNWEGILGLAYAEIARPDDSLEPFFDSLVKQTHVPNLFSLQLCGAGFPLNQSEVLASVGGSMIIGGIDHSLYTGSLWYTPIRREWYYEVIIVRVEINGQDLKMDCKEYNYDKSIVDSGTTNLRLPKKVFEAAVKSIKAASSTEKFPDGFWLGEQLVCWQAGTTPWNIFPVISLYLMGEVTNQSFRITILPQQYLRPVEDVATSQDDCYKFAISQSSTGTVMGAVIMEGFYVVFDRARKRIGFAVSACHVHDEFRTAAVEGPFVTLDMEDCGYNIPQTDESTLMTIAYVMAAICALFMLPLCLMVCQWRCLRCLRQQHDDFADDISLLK

SMILES: C[C@@]12CC[C@H](O)[C@@H]3COC(=C31)C(=O)c1cc3c(OCCO)cccc3cc12 [Compound 1, Xestosaprol F]
- Inhibition of BACE1 (in words): significantly less active
